Reference: PubChem BioAssay AID248 (DTP/NCI, 2004)
Toxic doses and inconclusive results are not listed. Cut-off read from the data, not from the text of the source: active = T/C of 150% or more; inactive = T/C below 125%.

Tested on: L1210 leukemia ip in BDF1 mice, survival T/C
Experiment: NCI In Vivo Anticancer Drug Screen. Data for tumor model L1210 Leukemia (intraperitoneal) in B6D2F1 (BDF1) mice
Details: endpoint: mean survival time, higher = longer survival
Summary of the method: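 Transplantable tumor model; survival measured in treated vs vehicle control mice. Value = treated/control.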

[1] = dose: 50.0 mg/kg/injection, schedule: Q01DX009 (ip), vehicle: Klucel (hydroxypropylcellulose) (HPC)
[2] = dose: 100.0 mg/kg/injection, schedule: Q01DX009 (ip), vehicle: Klucel (hydroxypropylcellulose) (HPC)
[3] = dose: 100.0 mg/kg/injection, schedule: Q01DX009 (ip), vehicle: saline with Tween-80
[4] = dose: 200.0 mg/kg/injection, schedule: Q01DX009 (ip), vehicle: saline with Tween-80
[5] = dose: 400.0 mg/kg/injection, schedule: Q01DX009 (ip), vehicle: saline with Tween-80
[6] = dose: 100.0 mg/kg/injection, schedule: Q04DX002 (ip), vehicle: saline with Tween-80
[7] = dose: 200.0 mg/kg/injection, schedule: Q04DX002 (ip), vehicle: saline with Tween-80
[8] = dose: 400.0 mg/kg/injection, schedule: Q04DX002 (ip), vehicle: saline with Tween-80
[9] = dose: 50.0 mg/kg/injection, schedule: Q01DX009 (ip), vehicle: saline with Tween-80
[10] = dose: 100.0 mg/kg/injection, schedule: Q04DX003 (ip), vehicle: saline with Tween-80
[11] = dose: 200.0 mg/kg/injection, schedule: Q04DX003 (ip), vehicle: saline with Tween-80

Measured: T/C

CCCCOP(=O)(OCCCC)[O][Pb]([CH2]C)([CH2]C)[CH2]C
inactive: dose: 3.13 mg/kg/injection, schedule: Q01DX009 (ip), vehicle: saline with Tween-80 101 % of control | dose: 6.25 mg/kg/injection, schedule: Q01DX009 (ip), vehicle: saline with Tween-80 91 % of control

CCCCCCCc1cc(O)c2c3c(c(=O)oc2c1)CCC(C)C3 (configuration not stated)
inactive: dose: 75.0 mg/kg/injection, schedule: Q04DX003 (ip), vehicle: Klucel (hydroxypropylcellulose) (HPC) 93 % of control | dose: 150.0 mg/kg/injection, schedule: Q04DX003 (ip), vehicle: Klucel (hydroxypropylcellulose) (HPC) 92 % of control | dose: 300.0 mg/kg/injection, schedule: Q04DX003 (ip), vehicle: Klucel (hydroxypropylcellulose) (HPC) 93 % of control

[Cl][Ge]([Cl])([c]1ccccc1)[c]1ccccc1
inactive: [1] 96 % of control | [2] 96 % of control | dose: 100.0 mg/kg/injection, schedule: Q04DX003 (ip), vehicle: Klucel (hydroxypropylcellulose) (HPC) 98 % of control | dose: 200.0 mg/kg/injection, schedule: Q04DX003 (ip), vehicle: Klucel (hydroxypropylcellulose) (HPC) 94 % of control

Nc1ccc2nc[nH]c2c1
inactive: dose: 100.0 mg/kg/injection, schedule: Q01DX009 (ip), vehicle: saline 98 % of control | dose: 100.0 mg/kg/injection, schedule: Q04DX003 (ip), vehicle: saline 101 % of control | dose: 200.0 mg/kg/injection, schedule: Q01DX009 (ip), vehicle: saline 95 % of control | dose: 200.0 mg/kg/injection, schedule: Q04DX003 (ip), vehicle: saline 104 % of control | dose: 400.0 mg/kg/injection, schedule: Q01DX009 (ip), vehicle: saline 87 % of control | dose: 400.0 mg/kg/injection, schedule: Q04DX003 (ip), vehicle: saline 102 % of control

CCCC(C)(COC(N)=O)COC(N)=O
inactive: [3] 93 % of control | [4] 90 % of control | [5] 109 % of control

COc1ccccc1CN1CCCN(Cc2ccccc2OC)C1c1ccc(N(C)C)cc1
inactive: dose: 50.0 mg/kg/injection, schedule: Q01DX001 (ip), vehicle: saline 98 % of control | dose: 100.0 mg/kg/injection, schedule: Q01DX001 (ip), vehicle: saline 98 % of control | dose: 200.0 mg/kg/injection, schedule: Q01DX001 (ip), vehicle: saline 95 % of control | dose: 400.0 mg/kg/injection, schedule: Q01DX001 (ip), vehicle: saline 88 % of control

C=CCCCCCCCCC(=O)N/N=C/c1cccc(OC)c1OC
inactive: dose: 100.0 mg/kg/injection, schedule: Q04DX002 (ip), vehicle: saline 95 % of control | dose: 200.0 mg/kg/injection, schedule: Q04DX002 (ip), vehicle: saline 103 % of control | dose: 400.0 mg/kg/injection, schedule: Q04DX002 (ip), vehicle: saline 106 % of control

CCOC(=O)c1c(O)c(=O)[nH]c2ccccc12
inactive: [3] 97 % of control | [6] 101 % of control | [4] 108 % of control | [7] 118 % of control | [5] 101 % of control | [8] 97 % of control

CCCCOC(=O)c1ccc(NC(=O)Nc2cc([N+](=O)[O-])ccc2Cl)cc1
inactive: dose: 25.0 mg/kg/injection, schedule: Q01DX009 (ip), vehicle: Klucel (hydroxypropylcellulose) (HPC) 113 % of control | [1] 100 % of control | [2] 90 % of control

Cc1ncnc2c1CCC2
inactive: [9] 96 % of control | [3] 105 % of control | [10] 97 % of control | [11] 97 % of control

c1ccc(C2OC3(CCCCC3)C[N+]23CCCC3)cc1 (configuration not stated)
inactive: dose: 25.0 mg/kg/injection, schedule: Q01DX009 (ip), vehicle: saline with Tween-80 109 % of control | [9] 107 % of control | [10] 97 % of control

CC[CH2][Sn]([CH2]CC)([CH2]CC)[CH2]CC
inactive: dose: 50.0 mg/kg/injection, schedule: Q01DX001 (ip), vehicle: carboxymethylcellulose (CMC) 95 % of control | dose: 100.0 mg/kg/injection, schedule: Q01DX001 (ip), vehicle: carboxymethylcellulose (CMC) 86 % of control

O=C1c2ccccc2C(=O)N1CCCCCN1C(=O)c2ccccc2C1=O
inactive: dose: 100.0 mg/kg/injection, schedule: Q01DX001 (ip), vehicle: saline with Tween-80 102 % of control | [6] 104 % of control | dose: 200.0 mg/kg/injection, schedule: Q01DX001 (ip), vehicle: saline with Tween-80 96 % of control | [7] 96 % of control | dose: 400.0 mg/kg/injection, schedule: Q01DX001 (ip), vehicle: saline with Tween-80 98 % of control | [8] 101 % of control

C=CS(=O)(=O)CCc1ccccc1
inactive: [6] 115 % of control | [7] 102 % of control | [8] 91 % of control

O=[N+]([O-])c1ncn[nH]1
inactive: [3] 96 % of control | [10] 102 % of control | [11] 97 % of control | [5] 87 % of control | dose: 400.0 mg/kg/injection, schedule: Q04DX003 (ip), vehicle: saline with Tween-80 92 % of control
